Experiments:
Assay type in all cases: cell-based
[1] = system: fibroblasts isolated from human dermis; experiment: RT-PCR analysis of type 1 collagen mRNA level, two-dimensional culture of dermal fibroblasts
Method: Namely, total mRNA to be used in cDNA synthesis was isolated from the cells of the control and test groups using an RNeasy mini kit (QIAGEN, CA, USA). Then, the amount of the isolated total mRNA was calculated by measuring the absorbance at 260nm/280nm using an UV spectrophotometer (Eppendorf, Hamburg, Germany), thus quantifying the extracted mRNA and determining its purity (data not shown). Thereafter, 0.5 µg of the total mRNA was reacted with reverse transcriptase (Promega, WI, USA) using an oligo d(T) primer for one hour at 42 °C and for 5 minutes at 95 °C, and then the reaction was stopped at 4°C, thus synthesizing cDNA. The synthesized cDNA template was subjected to polymerase chain reaction (hereinafter, referred to as "PCR") using complementary primers of 5'-[sequence]-3' (SEQ ID NO: 1) (sense) and 5'-[sequence]-3' (SEQ ID NO: 2) (anti-sense). In the RT-PCR reaction, water was added to a reaction mixture of 0.5 µl of the template, 0.7 µl of each primer (10 pmole/µl) and PCR premix (Bioneer, Korea) to a final volume of 20 µl, and then, the aqueous mixture was pre-denatured at 94°C for 5 minutes using a thermal cycler and then subjected to 25 PCR cycles (each cycle consisting of 30 seconds at 94 °C, 30 seconds at 58 °C, and 30 seconds at 72 °C). Also, in the RT-PCR reaction, glyceraldehyde-3-phosphate dehydrogenase (GAPDH) was used as a positive control.
Then, the isolated fibroblasts were cultured in the second culture medium as described above under the same conditions for 2 days. Then, the cultured fibroblasts were supplied with a second culture medium containing 100 nM pamidronate at 3-day intervals and cultured in the medium for each period of 1 week, 2 weeks and 3 weeks. Also, fibroblasts cultured in a second culture medium containing 1mM vitamin C were used as a positive control group, and fibroblasts cultured in a secondary culture medium containing no vitamin C and pamidronate was used as a control group. […]

[2] = system: fibroblasts isolated from human dermis; experiment: Western blot analysis of type 1 collagen expression, two-dimensional culture of dermal fibroblasts
Description: The levels of type 1 collagen in the 3-week cultured control group (3WC) and the 3-week cultured test group (3WR), which had been collected in Example 1-2), were compared with each other. For this purpose, each sample was subjected to Western blot analysis. In the Western blot analysis, each sample was electrophoresed on 8% SDS-PAGE gel, and the resulting collagen band was transferred to a nitrocellulose membrane and then treated with type 1 collagen monoclonal antibody (Abcam, Cambridge, UK) (see FIG. 2). In the Western blot analysis, actin was also used as a positive control group.
Fibroblasts were isolated from skin dermis and subcultured, in the same manner as in Example 2. Then, the isolated fibroblasts were cultured in the second culture medium as described above under the same conditions for 2 days. Then, the cultured fibroblasts were supplied with a second culture medium containing 100 nM pamidronate at 3-day intervals and cultured in the medium for each period of 1 week, 2 weeks and 3 weeks. […]
RT-PCR on each of the 1-week, 2-week and 3-week cultured control groups, the 1-week, 2-week and 3-week cultured test group administered with pamidronate, and the 1-week, 2-week and 3-week cultured positive control group administered with vitamin. […] The mRNA levels of type 1 collagen in the samples, as measured in the RT-PCR reactions, were shown in FIG. 4 for comparison with each other. […]

[3] = system: fibroblasts isolated from human oral epithelium; experiment: Western blot analysis of type 1 collagen protein level, two-dimensional culture of oral fibroblasts; conditions: 100 ng/ml pamidronate together with 1mM vitamin C; 3-week culture (3WR) vs control (3WC)
Method: (§1) The epithelium naturally exuded from a patient who had been undergoing a surgical operation due to oral diseases was mixed with […] DMEM (LG-DMEM, glucose 1g/L, GIBCO, MO, USA) medium, a first culture medium, and the mixture was pre-centrifuged to isolate cells. The cells were ultra-centrifuged using Percoll solution (SIGMA, MD, USA), thus isolating only nucleated cells. The nucleated cells isolated as described above cultured in an incubator under conditions of 5% (v/v) CO2 and 37.5 °C while replacing a second culture medium (high-glucose DMEM medium containing 10% bovine fetal serum) at two-day intervals, and only fibroblasts were isolated from the culture medium.
The isolated fibroblasts were cultured in said second culture medium under the same conditions for 2 days to saturate them. Then, the saturated fibroblasts were cultured in a second culture medium containing 1mM vitamin C and 100 ng/ml pamidronate (Hanlim Pharm. Co., Ltd., Korea) for each period of 1 week, 2 weeks and 3 weeks, while replacing the medium at 3-day intervals. As a control group, a second culture medium containing no vitamin C and pamidronate was used.
The levels of type 1 collagen in the 3-week cultured control group (3WC) and the 3-week cultured test group (3WR), which had been collected in Example 1-2), were compared with each other. […]

[4] = system: fibroblasts isolated from human oral epithelium; experiment: RT-PCR analysis of type 1 collagen mRNA level, two-dimensional culture of oral fibroblasts; conditions: 100 ng/ml pamidronate together with 1mM vitamin C; cultured 1, 2 and 3 weeks (1WR, 2WR, 3WR) vs control medium without both
Method: as §1
The isolated fibroblasts were cultured in said second culture medium under the same conditions for 2 days to saturate them. […]
The collagen mRNA levels of the 1-week cultured control group (1WC), the 2-week cultured control group (2WC), the 3-week cultured control group (3WC), the 1-week cultured test group (1WR), the 2-week cultured test group (2WR) and the 3-week cultured group (3WR), which had been collected in Example 1-2), were measured and compared with each other. […]

[5] = system: fibroblasts isolated from human dermis; experiment: Three-dimensional culture of dermal fibroblasts on PLGA support, haematoxylin-eosin staining of collagen layer; conditions: 100 nM pamidronate together with 1 mM vitamin C; 4 weeks; control: vitamin C alone
Method: A given amount of dermal tissue was excised from the skin of three normal persons. The excised human dermis from which an epidermal and fatty layer had been removed was finely cut and treated with collagenase so as to isolate dermis from epidermis. The isolated dermal tissue was cultured in 0.25% trypsin solution at 36 °C for 10 minutes. Then, the culture broth was vortexed to isolate fibroblasts. The isolated cells were collected and washed, and then cultured in a DMEM medium (GIBCO, MO, U.S.A.) containing 10% fetal bovine serum (FBS). At about 70% confluence, they were subcultured.
A PLGA-based, disc-shaped polymer support (Innotech., Korea) with a diameter of 10 mm, a thickness of 3 mm, an average pore size of 300-500 µm and a porosity of 90%, was used in three-dimensional culture. The support was treated with 100 %(v/v), 90 %(v/v), 70 %(v/v) and then 10 %(v/v) ethanol in order, at 4 °C for each treatment, and washed with PBS (phosphate buffered saline) and a second culture medium followed by drying. Next, 100 µl of a suspension of 1 x 10^6 dermal fibroblasts cultured as described above was plated on the support and cultured in a culture dish with a diameter of 60 mm. After two hours, 6 ml of the second culture medium as described above was added to the cells, and the mixture was cultured in a shaking incubator (30rpm). […]

O=C1O[C@H]([C@@H](O)CO)C(O)=C1O [vitamin C]
mRNA level of type 1 collagen ([1]; 1mM vitamin C alone (positive control), cultured 1, 2 and 3 weeks): increased rapidly in the initial stage of culture, but it was reduced with an increase in culture time

NCCC(O)(P(=O)(O)O)P(=O)(O)O [pamidronate, 3-amino-1-hydroxypropylidene-1,1-bisphosphonic acid]
expression level of type 1 collagen ([2]; 100 nM pamidronate alone, three weeks of culture, compared with single addition of 1mM vitamin C): remarkable increase
mRNA level of type 1 collagen ([1]; 100 nM pamidronate alone, cultured 1, 2 and 3 weeks): high regardless of culture period
type 1 collagen protein level [3]: synthesized at a remarkably high level
mRNA level of type 1 collagen [4]: higher mRNA level than that of the 3-week cultured control group
layer of collagen adhered to the surface of the PLGA support [5]: much thicker than the case of addition of vitamin C alone

NCCCC(O)(P(=O)(O)O)P(=O)(O)O [alendronate, 4-amino-1-hydroxybutylidene-1,1-bisphospnonic acid]
type 1 collagen protein (Western blot) ([2]; alendronate alone, same concentration as pamidronate (100 nM), cultured one week, FIG. 7): remarkably increased
mRNA level of type 1 collagen ([1]; alendronate alone, same concentration as pamidronate (100 nM), cultured one week, FIG. 6): remarkably increased
